The record followed here is patent US20080161274A1, “Compounds and methods for inhibition of bone loss” (Resolvyx Pharmaceuticals, Inc., priority 2006, published 2008).

The subject of experiment [1] is mice with established Type II collagen arthritis. Briefly: 11 day male DBA/1J mouse established Type II collagen arthritis. The following applies: for clinical symptoms of arthritis (clinical scoring in the paws) / bone loss (histologic scoring) / pannus formation (histologic scoring): mice n=16; for clinical symptoms of arthritis (clinical scoring in the paws): vs arthritic control, FIG. 2a; for bone loss (histologic scoring) / pannus formation (histologic scoring): FIG. 2b. It is filed as in vivo. How it is done: Male DBA/1J mice (7-9 weeks old on arrival; at least 7 weeks old at time of first immunization) were housed 5 per cage and were acclimated for enough days after arrival such that all animals were at least 7 weeks old at start of study.
Mice were anesthetized with Isoflurane and given intradermal collagen (2 mg/ml) injections at the base of the tail in a volume of 150 μl (D0 and D21). On days 21-35, onset of arthritis occurred and mice were randomized into treatment groups. Randomization into each group was done after swelling was obviously established in at least one paw, and attempts were made to assure approximately equal mean scores across the groups at time of enrollment. Treatment was initiated after enrollment and continued every day for a total of 10 days as outlined in Table 3. During the ten days of treatment, clinical scores were given for each of the paws (right front, left front, right rear, and left rear) according to the scoring methods provided below.
• 0 normal • 1 1 hind or fore paw joint affected or minimal diffuse erythema and swelling • 2 2 hind or fore paw joints affected or mild diffuse erythema and swelling • 3 3 hind or fore paw joints affected or moderate diffuse erythema and swelling • 4 Marked diffuse erythema and swelling, or 4 digit joints affected • 5 Severe diffuse erythema and severe swelling entire paw, unable to flex digits
All dose solutions were prepared to deliver 10 ml/kg (0.3 ml/30 g mouse). On day 11 of arthritis, animals were euthanized, and both fore and hind limbs with knees were removed, placed into formalin and then processed for microscopy. Following 1-2 days in fixative and then 4-5 days in decalcifier, the joints were processed, embedded, sectioned and stained with toluidine blue. (Only fore and hind paws and knees were initially processed—6 joints/mouse.)
When scoring paws or ankles from mice with lesions of type II collagen arthritis, severity of changes as well as number of individual joints affected must be considered. When only 1-3 joints of the paws or ankles out of a possibility of numerous metacarpal/metatarsal/digit or tarsal/tibiotarsal joints were affected, an arbitrary assignment of a maximum score of 1, 2 or 3 from the scoring scale below was given depending on severity of changes. If more than 3 joints were involved, the full scoring scale below was applied only to the most severely affected/majority of joints.
• 0 Normal • 1 Minimal infiltration of pannus in cartilage and subchondral bone • 2 Mild infiltration with marginal zone destruction of hard tissue in affected joints • 3 Moderate infiltration with moderate hard tissue destruction in affected joints • 4 Marked infiltration with marked destruction of joint architecture, most joints • 5 Severe infiltration associated with total or near total destruction of joint architecture, affects all joints
• 0 Normal • 1 Minimal—small areas of resorption, not readily apparent on low magnification, rare osteoclasts in affected joints • 2 Mild—more numerous areas of resorption, not readily apparent on low magnification, osteoclasts more numerous in affected joints • 3 Moderate—obvious resorption of medullary trabecular and cortical bone without full thickness defects in cortex, loss of some medullary trabeculae, lesion apparent on low magnification, osteoclasts more numerous in affected joints • 4 Marked—Full thickness defects in cortical bone, often with distortion of profile of remaining cortical surface, marked loss of medullary bone, numerous osteoclasts, affects most joints • 5 Severe—Full thickness defects in cortical bone and destruction of joint architecture of all joints
Histologic parameters (mean ±SE) for each group were analyzed for differences using the Chi Square Test and one way ANOVA. Significance was set at p≦0.05.

Another experiment relates to rats with CIA. Briefly: Rat collagen-induced arthritis (CIA), knee histopathology scoring. In kind it is in vivo. The following applies: rats n=9. How it is done: Female Lewis rats were anesthetized with 3-5% isoflurane and arthritis was induced by intradermal injection of 0.3 mL (100 μL at three different sites) of an emulsion containing 1.5 mg/mL of type II bovine collagen, CII (Elastin Products Inc., Cat# CM276), in incomplete Freund's adjuvant (IFA) at the base of the tail on day 0 and 6. Control rats were injected with an equal amount of IFA only.
The volume of both hind paws were measured using a water displacement plethysmometer (Ugo Basile, Biological Research Apparatus, Italy), and the onset of arthritis was indicated by increased paw volume, which appeared approximately on day 11 post injection. Both paw volumes and body weights were measured throughout the study every 2-3 days. Nineteen to twenty-one days after CII injection, the rats were euthanized with CO2. Blood was collected by cardiac puncture and serum was saved.
Bovine Type II collagen for tissue culture was purchased from Chondrex (Cat# 2022) and was reconstituted according to the manufacturer's instructions. All data were processed and analyzed by t-test using GraphPad Prism software.
After the animals were euthanized, both hind paws and knees were removed, hind paws were weighed, and the paws and knees were placed in formalin. Following 1-2 days in fixative and 4-5 days in decalcifier, the ankle joints were cut in half longitudinally, and the knees were cut in half in the frontal plane. The joints were then processed, embedded, sectioned and stained with toluidine blue. Collagen arthritic ankles and knees were given scores of 0-5 for inflammation, pannus formation and bone resorption according to the following criteria:
• 0 Normal • 1 Minimal infiltration of inflammatory cells in periarticular tissue • 2 Mild infiltration • 3 Moderate infiltration with moderate edema • 4 Marked infiltration with marked edema • 5 Severe infiltration with severe edema
• 0 Normal • 1 Minimal infiltration of pannus in cartilage and subchondral bone • 2 Mild infiltration (extends over up to ¼ of surface or subchondral area of tibia or femur) • 3 Moderate infiltration (extends over >¼ but <½ of surface or subchondral area of tibia or femur) • 4 Marked infiltration (extends over ½ to ¾ of tibial or femoral surface) • 5 Severe infiltration (covers >¾ of surface)
• 0 Normal • 1 Minimal: minimal to mild loss of toluidine blue staining with no obvious chondrocyte loss or collagen disruption • 2 Mild: mild loss of toluidine blue staining with focal mild (superficial) chondrocyte loss and/or collagen disruption • 3 Moderate: moderate loss of toluidine blue staining with multifocal to diffuse moderate (depth to middle zone) chondrocyte loss and/or collagen disruption • 4 Marked: marked loss of toluidine blue staining with multifocal to diffuse marked (depth to deep zone) chondrocyte loss and/or collagen disruption • 5 Severe: severe diffuse loss of toluidine blue staining with multifocal severe (depth to tide mark) chondrocyte loss and/or collagen disruption on both femur and tibia
• 0 Normal • 1 Minimal: small areas of resorption, not readily apparent on low magnification, rare osteoclasts • 2 Mild: more numerous areas of resorption, definite loss of subchondral bone involving ¼ of tibial or femoral surface (medial or lateral) • 3 Moderate: obvious resorption of subchondral bone involving >¼ but <½ of tibial or femoral surface (medial or lateral) • 4 Marked: obvious resorption of subchondral bone involving ≧½ but <¾ of tibial or femoral surface (medial or lateral) • 5 Severe: distortion of entire joint due to destruction involving >¾ of tibial or femoral surface (medial or lateral)

Setting [2] is: 0.5 μg/kg once daily i.v., vs vehicle control.
Where [3] appears, read: 5.0 μg/kg once daily i.v., vs vehicle control.
Setting [4] is: 0.3 mg/kg twice daily i.v., days 8 to 19, FIG. 3.

On to `CC[C@@H](O)/C=C/C=C\C[C@@H](O)/C=C/C=C/C=C\[C@@H](O)CCCC(=O)O` [Compound X], for which the “score of bone damage (histologic scoring in joints)” value in experiment [1] (mice n=15, 5 μg/kg twice daily iv, vs vehicle control, FIG. 1) was “significant decrease”. Further, the “clinical symptoms of arthritis (clinical scoring in the paws)” value in experiment [1] (0.5 μg/kg once daily i.v.) was “inhibited”. Also, in experiment [1] (setting [2]), the “bone loss (histologic scoring)” value is given as “reduced” and the “pannus formation (histologic scoring)” value is given as “reduced”. The “clinical symptoms of arthritis (clinical scoring in the paws)” value in experiment [1] (5.0 μg/kg once daily i.v.) is “inhibited”. Further, in experiment [1] (setting [3]), the “bone loss (histologic scoring)” value is “reduced” and the “pannus formation (histologic scoring)” value is on record as “reduced”. Also, in the experiment with rats with CIA (setting [4]), the “bone resorption (knee histopathology scoring)” value is on record as “significant reduction”, the “cartilage damage (knee histopathology scoring)” value is reported as “significant reduction”, the “inflammation (knee histopathology scoring)” value is “significant reduction” and the “pannus (knee histopathology scoring)” value is listed as “significant reduction”. Also, the knee histopathology scores result in the experiment with rats with CIA (therapeutic dosing, FIG. 3) is on record as “significantly reduced”. Further, in the experiment with rats with CIA (therapeutic dosing, FIG. 4), the bone resorption entry is “protected” and the joint damage entry is “protected”.
